From US20240336627A1, “NOVEL COMPOUNDS FOR THE DIAGNOSIS OF TDP-43 PROTEINOPATHIES” (AC IMMUNE SA, priority 2021, published 2024)
“Also recorded” adds a separate entry of the source. Like-named read-outs stand apart in the source and are kept apart here. Marks after values point to notes of the source that are not given here.

How the values were obtained:
[1] = target: T1, recombinant flag-tagged TDP-43 aggregates (Homo sapiens, UniProt Q13148); assay: Kd determination on recombinant TDP-43 aggregates with filter-binding assay
T1 construct: FLAG
Procedure: The TDP-43 aggregation protocol (Shimonaka et al., 2016) was implemented to generate TDP-43 aggregates. The protein preparation of high purity without any degradation was used for the aggregation procedure.
2.1 Kd Determination on Recombinant TDP-43 Aggregates with Filter-Binding Assay of [^3H]-Compound 1
Recombinant flag-tagged TDP-43 aggregates (1.3 μM) were incubated in the presence of [^3H]-Compound 1 with increasing concentrations of radioligand from 0 to 150 nM in a total reaction volume of 100 μL, for two hours at room temperature. 45 μL of sample (corresponding to each concentration) in duplicate was filtered under vacuum on a UniFilter-96 GF/C plate. The filters were washed 5 times with ice-cold buffer (50 mM Tris pH 7.4) and then dried overnight. 30 μL scintillation liquid was added in each well for 30 minutes before quantifying the signal on a Microbeta Trilux device (Perkin Elmer). The non-specific signal was determined with an excess of unlabeled Compound 1 (10 μM) and the specific binding was calculated by subtracting the non-specific signal from the total signal.

[2] = target: T2, pTDP-43 aggregates in FTLD-TDP brain sections (Homo sapiens, UniProt Q13148); assay: Micro-autoradiography staining in brain sections from patients with FTD; type: binding; settings: 60 nM radioligand, frontal cortex brain sections from FTLD-TDP donors
T2 construct: from tissue; host or cells: frozen post-mortem human brain sections from FTLD-TDP donors
Procedure: All tissues were collected from donors for or from whom a written informed consent for a brain autopsy and the use of the material and clinical information for research purposes had been obtained by the respective brain banks. All samples were anonymized and coded. Frozen brain tissue blocks with confirmed TDP-43 pathology upon autopsy were processed using a cryotome to generate sections of 10 μm in thickness and mounted on glass slides. Sections were kept at −80° C. until use.
Brain sections were immunostained using a commercially available antibody, specific for phosphorylated serine at amino acid 409/410 (anti-pTDP-43 pS409/410, Cosmobio, TIP-PTD-P02). Sections were fixed for 15 minutes at 4° C. with 4% formaldehyde (Sigma, 252549) and washed three times for five minutes with 1×PBS (Dulbecco's phosphate buffered saline, Sigma D1408) at room temperature. Next, sections were saturated and permeabilized in blocking buffer (PBS, 10% normal goat serum (NGS), 0.25% Triton X-100) for one hour at room temperature and incubated overnight at 4° C. with primary antibody against pTDP-43 (diluted at 1/250 in PBS, 5% NGS, 0.25% Triton X-100). The following day, sections were washed three times for five minutes with 1×PBS before incubation with a secondary, AlexaFluor647-labeled goat-anti-rabbit antibody (Abcam, ab150079, diluted at 1/500 in PBS) for 45 minutes at room temperature. […]

[3] = target: T3, Human brain derived TDP-43 aggregates (Homo sapiens, UniProt Q13148); assay: Micro-radiobinding competition assay on human FTD sarkosyl-insoluble brain extracts; type: binding; settings: for Human brain derived TDP-43 aggregates Mean % competition at 250 nM: 250 nM test compound; for Human brain derived TDP-43 aggregates Mean % competition at 2 μM: 2 μM test compound; for Ki: 0.24 nM to 2 μM test compound
T3 construct: A sample of brain tissue (frontal or temporal cortex) was homogenized; from tissue; host or cells: sarkosyl-insoluble fraction of human FTD brain (frontal or temporal cortex)
Procedure: Human brain extracts were prepared as described in Laferriere et al., 2019, Nature Neurosc. A sample of brain tissue (frontal or temporal cortex) was homogenized at 1:4 (w/v) ratio in the homogenization-solubilization (HS) buffer at 4° C. using tissue homogenizer (Precellys) with CKmix homogenization tubes. The following sequence was used for homogenization: 3 cycles of 30 seconds at 5000 rpm (with 15 seconds pause between each cycle). Homogenized samples were aliquoted and stored at −80° C. in 1.5 mL low protein binding tubes.
Brain homogenates were thawed on ice and resuspended in HS buffer to obtain a final concentration of 2% sarkosyl, 1 unit/μL Benzonase and 1 mM MgCl2. The samples were then incubated at 37° C. under constant shaking at 600 rpm on a thermomixer for 45 minutes (min). The supernatants were collected in a new tube (sarkosyl-soluble fraction, S1). The pellet was resuspended in 1000 μL of myelin floatation buffer and centrifuged at 20,000 g for 60 min at 4° C. The supernatant was carefully removed to remove all the floating lipids. This step was repeated if all the lipids could not be removed in a single step. The pellet was subsequently washed with Phosphate-Buffered Saline (PBS) and centrifuged for 30 min at 20,000 g at 4° C. The final pellet was resuspended in 200 μL PBS and stored at −80° C. (sarkosyl-insoluble fraction). The samples were analyzed by immunoblotting in denaturing conditions.
Human FTD sarkosyl-insoluble brain extracts were spotted onto microarray slides. The slides were incubated with [^3H]-Compound 52 or [^3H]-Compound 16 ligands at 75 nM or 40 nM, respectively, and the example compounds (non-radiolabelled) at 2 μM and 250 nM. In some cases, the non-radiolabelled example compounds were further assessed for a range of different concentrations, varying from 0.24 nM to 2 μM for determination of the inhibition constant (Ki). After incubation, slides were washed and scanned by a real-time autoradiography system (BeaQuant, ai4R). Quantification of the signal was performed by using the Beamage image analysis software (ai4R). Non-specific signal was determined with an excess of non-radiolabelled compound 52 or compound 16 (2 μM) and specific binding was calculated by subtracting the non-specific signal from the total signal. Competition was calculated as percent, where 0% was defined as the specific binding in the presence of vehicle and 100% as the values obtained in the presence of excess of the non-radiolabelled compound 52 or compound 16. Ki values were calculated in GraphPad Prism7 by applying a nonlinear regression curve fit using a one site, specific binding model. Measurements were performed with at least two technical replicates in the two-concentration competition experiment and with one technical replicate in the experiments including a range of concentrations. For compounds tested in more than one experiment, the mean of the replicates or Ki values in independent experiments is reported.

[4] = radioligand [3H]-Compound 52 (75 nM)
[5] = radioligand [3H]-Compound 16 (40 nM)

T1 sequence (Q13148 whole entry): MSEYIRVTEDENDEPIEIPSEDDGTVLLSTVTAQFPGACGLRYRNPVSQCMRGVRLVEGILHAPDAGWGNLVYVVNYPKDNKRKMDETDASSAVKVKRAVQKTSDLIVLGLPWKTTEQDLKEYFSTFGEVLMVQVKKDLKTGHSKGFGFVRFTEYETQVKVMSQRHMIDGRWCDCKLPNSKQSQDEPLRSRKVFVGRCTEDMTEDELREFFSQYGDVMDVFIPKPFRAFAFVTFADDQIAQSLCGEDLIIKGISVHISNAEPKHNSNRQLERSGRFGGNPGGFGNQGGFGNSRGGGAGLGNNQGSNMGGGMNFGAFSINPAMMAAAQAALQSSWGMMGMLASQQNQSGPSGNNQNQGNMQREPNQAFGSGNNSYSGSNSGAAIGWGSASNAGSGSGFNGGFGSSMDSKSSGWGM
T3 sequence (Q13148 whole entry): as above
T2 sequence (Q13148 whole entry): as above

Row | SMILES | Human brain derived TDP-43 aggregates Mean % competition at 250 nM [3, 4] | Human brain derived TDP-43 aggregates Mean % competition at 2 μM [3, 4] | Ki [3, 4] [nM] | further results
1 | Cn1cc(N2CCc3nc(-c4ccc(N5CC[C@@H](F)C5)nc4)sc3C2=O)cn1 [[^3H]-Compound 1, (R)-2-(6-(3-fluoropyrrolidin-1-yl)pyridin-3-yl)-5-(1-methyl-1H-pyrazol-4-yl)-6,7-dihydrothiazolo[5,4-c]pyridin-4(5H)-one] | – | – | – | Kd ([1]; data from three independent experiments, read-out: average Kd): 18.4 ± 4 nM; Kd ([1]; filter-binding assay, tritiated radioligand 0 to 150 nM, one-site specific binding model (FIG. 1), read-out: Kd value on recombinant flag-tagged TDP-43 aggregates): 15 nM; specific binding to recombinant TDP-43 aggregates ([1]; filter-binding assay, non-specific signal subtracted): high specific binding; micro-autoradiography signal (silver grains) co-localization with pTDP-43 antibody staining [2]: Accumulation of silver grains on pTDP-43 aggregates; also recorded: showed co-localization with pTDP-43 aggregates
2 | Nc1cc(N2CCc3nc(-c4cnc(N5CCC[C@H](F)C5)cn4)sc3C2=O)ccc1F [Example 36] | 51.0ª % | – | – | –
3 | Nc1ccc(N2CCc3nc(-c4ccc(N5CCCC5)nc4)sc3C2=O)cc1F [Example 15] | 64.6ª % | 96.4ª % | 139 | –
4 | N#Cc1c(N)cccc1N1CCc2nc(-c3cnc(N4CC[C@@H](F)C4)cn3)sc2C1=O [Example 40] | – | – | – | Human brain derived TDP-43 aggregates Mean % competition at 250 nM [3, 5]: 54.6^c %; Human brain derived TDP-43 aggregates Mean % competition at 2 μM [3, 5]: 77.9^c %; Ki [3, 5]: 104 nM
5 | Cn1cc(N2CCc3nc(-c4ccc(N5CCC[C@@H](F)C5)nc4)sc3C2=O)cn1 [Example 2, (R)-2-(6-(3-fluoropiperidin-1-yl)pyridin-3-yl)-5-(1-methyl-1H-pyrazol-4-yl)-6,7-dihydrothiazolo[5,4-c]pyridin-4(5H)-one] | 61.0ª % | 92.5ª % | 71.7 | –

Continued, in another order:

Row | Human brain derived TDP-43 aggregates Mean % competition at 250 nM [3, 4] | Human brain derived TDP-43 aggregates Mean % competition at 2 μM [3, 4] | Ki [3, 4] [nM] | SMILES | further results
6 | 56.9ª % | 84.1ª % | 110 | Nc1cccc(N2CCc3nc(-c4ccc(N5CC[C@@H](F)C5)nc4)sc3C2=O)c1F [Example 24] | –
7 | 42.6ª % | 73.9ª % | 27.7 | N#Cc1cc(N2CCc3nc(-c4ccc(N5CCC[C@@H](F)C5)nc4)sc3C2=O)ccc1N [Example 29] | –
8 | 82.0ª % | 95.0ª % | – | N#Cc1ccc(N2CCc3nc(-c4ccc(N5CCCC5)nc4)sc3C2=O)cc1N [Example 17] | –
9 | 66.7ª % | 88.3ª % | 161 | N#Cc1cc(N2CCc3nc(-c4ccc(N5CC[C@@H](F)C5)nc4)sc3C2=O)ccc1N [Example 20] | –
